Laboratory results from US20160074373A1, “METHODS AND COMPOSITIONS FOR INHIBITING HUMAN COPPER TRAFFICKING PROTEINS ATOX1 AND CCS” (SHANGHAI INSTITUTE OF MATERIA MEDICA, CHINESE ACADEMY OF …, priority 2013, published 2016).
“And” between values parts separate entries of the source, which are not always exact repeats. Equal values may be shown once.

How the values were obtained:
cell proliferation = assay: Rescue of cell proliferation inhibition induced by compound 50; assay type: cell-based; settings: co-treatment with compound 50
H1299 cells [1] = assay: 14C-lipid synthesis from 14C-glucose; assay type: cell-based
[2] = test system: AMPK phosphorylation and ACC1 phosphorylation; assay: Western blot of AMPK and ACC1 phosphorylation; assay type: cell-based; settings: for rescue of AMPK and ACC1 phosphorylation increased by compound 50: co-treatment with compound 50
[3] = test system: Atox1-WD4 interaction (eCALWY3 probe); assay: eCALWY3 FRET assay of Atox1-WD4 interaction; assay type: biochemical, human; settings: for Fluorescence Intensity Ratio (Citrine/Cerulean): 100 μM compound added; for Recover %: 100 μM compound, recovery of FRET ratio towards eCALWY3 only
Description: FRET for the eCALWY3 was performed in 150 mM HEPES, 100 mM NaCl, 1 mM DTT and 10% glycerol (pH 7.1). Zn^2+ titration was done by mixing 0.9 mM of Zn^2+ from a slightly acidic stock solution of ZnCl2 with buffering systems consisting of 1 mM DHPTA. The effects of varying concentrations of the small molecules were evaluated. Fluorescence spectra and emission anisotropy were recorded on a Varian Cary Eclipse spectrometer.

[4] = test system: Lung cancer H1299 cell, Head and neck cancer 212LN cell, Breast cancer MB231 cell; assay: Cancer cell viability / proliferation; settings: for cell death in cancer cells: H1299, 212LN, MB231, increasing doses
[5] = test system: human PIG1 cell and human dermal fibroblast cell; settings: for viability of normal cells: 72 hours, highest concentration tested 10 μM
[6] = test system: SOD activity in H1299 cells; assay: SOD activity assay; settings: 48 h treatment
K562 cells [7] = assay: K562 xenograft; settings: 100 mg/kg/day i.p. for 21 days vs vehicle control
SOD1 and SOD2 = assay: Western blot of SOD1 and SOD2 levels; settings: H1299 and K562 cells
K562 cells [8] = assay: Intracellular ATP measurement
H1299 cells [9] = assay: Glucose utilization assay
[10] = test system: SOD activity in K562 cells; assay: SOD activity assay; settings: 48 h treatment
H1299 cells [11] = assay: Oxygen consumption rate; settings: in the presence or absence of oligomycin
H1299 cancer cells [12] = assay: 8-OHdG levels by triple quadrupole mass spectrometry; assay type: cell-based
Excerpt: FIG. 20A illustrates 8-OHdG levels in H1299 cancer cells determined by triple quadrupole mass spectrometry analysis. […] .

K562 cells [13] = assay: ROS production (DCFH-DA); assay type: cell-based
Description: (§1) Cells were treated with DMSO and DC_AC50 for 12 h and ROS generation was detected with DCFH-DA. Cells were incubated with 10 μM of DCFH-DA for 30 min at 37° C., washed twice with PBS, and immediately analyzed by a FACScan flow cytometer. The antioxidant NAC was treated with 3 mM concentration.

H1299 cells [14] = assay: ROS production (DCFH-DA); assay type: cell-based
Description: as §1

H1299 cells [15] = assay: Apoptosis and caspase-3 activity
[16] = test system: cytochrome c oxidase (CCO) in K562 cells; assay: Cytochrome c oxidase activity assay; settings: compared to the control
human CCS (hCCS) = target: T1, human CCS (hCCS) (Homo sapiens, UniProt O14618); assay: Intrinsic fluorescence Kd measurement; assay type: binding; settings: intrinsic tryptophan fluorescence
T1 construct: 6-His (cleaved yes); made in house; host or cells: E. coli BL21 (pET28a)
T1 sequence (O14618 1-274): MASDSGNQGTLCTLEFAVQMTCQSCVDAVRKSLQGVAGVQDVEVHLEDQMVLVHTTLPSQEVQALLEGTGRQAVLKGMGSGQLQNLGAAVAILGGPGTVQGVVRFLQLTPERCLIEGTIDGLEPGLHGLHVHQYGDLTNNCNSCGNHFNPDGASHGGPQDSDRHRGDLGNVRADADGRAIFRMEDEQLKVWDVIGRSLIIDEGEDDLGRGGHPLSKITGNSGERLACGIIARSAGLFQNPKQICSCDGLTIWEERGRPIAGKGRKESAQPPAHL
Description: Based on this similarity, the intrinsic fluorescence of tyrosine for Atox1 and WD4 and tryptophan for hCCS upon addition of small molecules was monitored.
The binding assay was performed in an […]. […] The Atox, WD4 domain and hCCS (1 μM) were performed in 50 mM HEPES, 200 mM NaCl, 1 mM DTT (pH 7.1). […] Following this fluorescence results, the Kds of the small molecules was calculated.

H1299 cancer cells [17] = assay: Cell cycle arrest assay
H1299 cells [18] = assay: 14C-RNA synthesis from 14C-glucose
HeLa cells = assay: Live cell copper(I) probe imaging of copper uptake; settings: 50 μM, added 10 min after CuSO4 (150 μM)
[19] = Description: An in vivo small molecule treatment experiment was performed to further test the efficacy of these compounds.
K562 cancer cells [20] = assay: 8-OHdG levels by triple quadrupole mass spectrometry; assay type: cell-based
Excerpt: FIG. 20B illustrates 8-OHdG levels in K562 cancer cells determined by triple quadrupole mass spectrometry analysis. […] .

H1299 cells [21] = assay: Intracellular ATP measurement
H1299 cells [22] = assay: H1299 xenograft; settings: 100 mg/kg/day i.p. for 21 days vs vehicle control
[23] = test system: cytochrome c oxidase (CCO) in H1299 cells; assay: Cytochrome c oxidase activity assay; settings: compared to the control
K562 cancer cells [24] = assay: Cell cycle arrest assay
H1299 cells [25] = assay: Lactate production
tumor growth = settings: TM-induced copper deficiency; cited from earlier work

c1cc(-c2cnn3cc(-c4ccc(OCCN5CCCCC5)cc4)cnc23)ccn1 [compound C, reference compound]
rescue of cell proliferation inhibited by compound 50 (cell proliferation): partially rescued
rescue of lipid synthesis decreased by compound 50 (H1299 cells [1]; co-treatment with compound 50): recovered lipid synthesis
rescue of AMPK and ACC1 phosphorylation increased by compound 50 [2]: almost completely reversed

COc1ccc2cc3c(N)c(C(=O)Nc4ccc(C(C)=O)cc4)sc3nc2c1 [Compound 61, N-(4-acetylphenyl)-3-amino-7-methoxythieno[2,3-b]quinoline-2-carboxamide]
Fluorescence Intensity Ratio (Citrine/Cerulean) [3]: eCALWY3 only: 3.68 100 μM compound added: 2.72
Recover % [3]: 74%
cell death in cancer cells [4]: induce cell death
viability of normal cells [5]: not harmful

Nc1c(C(=O)NCC(c2ccccc2)c2ccccc2)sc2nc(-c3ccncc3)cc(C(F)(F)F)c12 [Compound 30]
Fluorescence Intensity Ratio (Citrine/Cerulean) [3]: eCALWY3 only: 2.27 100 μM compound added: 1.53
Recover % [3]: 67%
cell death in cancer cells [4]: induce cell death
viability of normal cells [5]: not harmful

CCN1CCc2nc3sc(C(=O)Nc4ccccc4OC(F)(F)F)c(N)c3cc2C1 [Compound 2, 3-amino-6-ethyl-N-(2-(trifluoromethoxy)phenyl)-5,6,7,8-tetrahydro-thieno[2,3-b][1,6]naphthyridine-2-carboxamide]
Fluorescence Intensity Ratio (Citrine/Cerulean) [3]: eCALWY3 only: 3.54 100 μM compound added: 3.05
Recover % [3]: 86%
cell death in cancer cells [4]: induce cell death
viability of normal cells [5]: not harmful

Nc1c(C(=O)Nc2c(F)cc(F)cc2Br)sc2nc3c(cc12)CCC3 [Compound 50, 3-amino-N-(2-bromo-4,6-difluorophenyl)-6,7-dihydro-5H-cyclopenta[b]thieno[3,2-e]pyridine-2-carboxamide]
SOD activity [6]: noticeably decreased
tumor growth and size (K562 cells [7]): significantly decreased tumor growth and size
SOD2 expression level (SOD1 and SOD2): Reduced expression
cellular ATP levels (K562 cells [8]): significantly reduced
glucose uptake (H1299 cells [9]): no noticeable changes
cell death in cancer cells [4]: induce cell death
cancer cell proliferation ([4]; dose-dependent): high efficiency in inhibiting cancer cell proliferation
SOD activity [10]: noticeably decreased
oxygen consumption rate (H1299 cells [11]): significantly decreased
8-OHdG levels (H1299 cancer cells [12]): increased
cellular ROS level (K562 cells [13]; 10 μM): increased cellular ROS level
cellular ROS level (H1299 cells [14]; 10 μM): increased cellular ROS level
apoptosis (H1299 cells [15]): didn't noticeably induce apoptosis
caspase-3 activity (H1299 cells [15]): does not noticeably affect
CCO activity [16]: significantly lowered
Kd (human CCS (hCCS)): 8 µM and ~8.1 µM
lipid synthesis (H1299 cells [1]): significant decreases
cell cycle (H1299 cancer cells [17]): G2/M phase cell cycle arrest
glucose-dependent RNA synthesis (H1299 cells [18]): no noticeable changes
copper uptake (HeLa cells): reduced copper uptake
ACC1 phosphorylation ([2]; H1299 and K562 cells): increased
AMPK phosphorylation ([2]; H1299 and K562 cells): increased
GRAN ([19]; mouse, in vivo, 100 mg/kg/day): 1.58 ± 1.4 ×10^3/μL
HCT ([19]; mouse, in vivo, 100 mg/kg/day): 30.85 ± 4.879%
HGB ([19]; mouse, in vivo, 100 mg/kg/day): 7.45 ± 1.768 g/dL
LYM ([19]; mouse, in vivo, 100 mg/kg/day): 4.74 ± 1.556 ×10^3/μL
MCH ([19]; mouse, in vivo, 100 mg/kg/day): 13.6 ± 1.273 pg
MCHC ([19]; mouse, in vivo, 100 mg/kg/day): 24 ± 1.98 g/dL
MCV ([19]; mouse, in vivo, 100 mg/kg/day): 56.75 ± 0.919 fL
MONO ([19]; mouse, in vivo, 100 mg/kg/day): 0.44 ± 0.17 ×10^3/μL
PLT ([19]; mouse, in vivo, 100 mg/kg/day): 742 ± 684.5 ×10^3/μL
RBC ([19]; mouse, in vivo, 100 mg/kg/day): 5.43 ± 0.778 ×10^6/μL
RDWa ([19]; mouse, in vivo, 100 mg/kg/day): 21.5 ± 4.667%
WBC ([19]; mouse, in vivo, 100 mg/kg/day): 6.89 ± 3.125 ×10^3/μL
MPV ([19]; nude mice, 100 mg/kg/day, mean): 6.35 ± 0.495 fL
well-tolerated dose ([19]; nude, mouse, in vivo, ip, 4 weeks): 100 mg/kg/day
8-OHdG levels (K562 cancer cells [20]): increased
cellular ATP levels (H1299 cells [21]): significantly reduced
tumor growth and size (H1299 cells [22]): significantly decreased tumor growth and size
effect on noncancerous cell lines [5]: minimum effects
viability of normal cells [5]: not harmful
CCO activity [23]: significantly lowered
cell cycle (K562 cancer cells [24]): G2/M phase cell cycle arrest
cellular level of lactate (H1299 cells [25]): no noticeable changes

Cc1cc(NC(=O)c2sc3nc(-c4ccccc4)cc(C(F)(F)F)c3c2N)no1 [Compound 71, 3-amino-N-(5-methylisoxazol-3-yl)-6-phenyl-4-(trifluoromethyl)thieno[2,3-b]pyridine-2-carboxamide]
Fluorescence Intensity Ratio (Citrine/Cerulean) [3]: eCALWY3 only: 2.25 100 μM compound added: 1.86
Recover % [3]: 83%
viability of normal cells [5]: toxic to normal cells

CC(=O)N[C@@H](CS)C(=O)O [NAC, N-acetyl-L-cysteine, reference compound]
rescue of 8-OHdG levels increased by compound 50 (H1299 cancer cells [12]; NAC 3 mM): rescued
rescue of cellular ROS levels increased by compound 50 (K562 cells [13]; co-treatment with compound 50): almost completely rescued
rescue of cellular ROS levels increased by compound 50 (H1299 cells [14]; co-treatment with compound 50): almost completely rescued
rescue of cell proliferation inhibited by compound 50 (cell proliferation): partially rescued
rescue of AMPK and ACC1 phosphorylation increased by compound 50 [2]: could not be rescued
rescue of 8-OHdG levels increased by compound 50 (K562 cancer cells [20]; NAC 3 mM): rescued

COc1cccc(-c2ccc3c(N)c(C(=O)Nc4cc(OC)ccc4Cl)sc3n2)c1 [Compound 49, 3-amino-N-(2-chloro-5-methoxyphenyl)-6-(3-methoxyphenyl)thieno[2,3-b]pyridine-2-carboxamide]
Fluorescence Intensity Ratio (Citrine/Cerulean) [3]: eCALWY3 only: 2.24 100 μM compound added: 1.89
Recover % [3]: 84%
cell death in cancer cells [4]: induce cell death
viability of normal cells [5]: not harmful

[SH-].[SH-].[S]=[Mo]=[S] [TM, tetrathiomolybdate]
tumor growth (tumor growth): significantly inhibited tumor growth
